Results: the METLIN SMRT retention time set (Domingo-Almenara et al. 2019)

Assay: gradient 5% acetonitrile 3 min, to 50% in 2 min, to 85% in 15 min, held 3 min, 100 µL/min
Conditions: column: Zorbax Extend-C18 2.1 x 50 mm; eluents: water / acetonitrile, 0.1% formic acid
Summary of the method: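 In both positive and negative ionization mode, a quadrupole time-of-flight mass spectrometer coupled to HPLC analyzed pure standards run in mixtures of ~100 molecules. The Zorbax Extend-C18 column (2.1 × 50 mm, 1.8 μm) was operated at 100 μL/min with water and acetonitrile, each containing 0.1% formic acid. The dead volume was 40 μL and the dwell volume 900 μL. Retention time came from adduct peaks that were computationally picked and individually inspected by hand.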

| SMILES | RP-LC retention time |
| --- | --- |
| CCc1ccc(CNC(=O)c2cc3n(n2)CC(C)(C(=O)NCc2ccccc2)N(C)C3=O)cc1 (stereo unspecified) | 832 s |
| FC1(F)CN[C@H](c2nc(-c3cccnc3)no2)C1 | 621 s |
| Fc1ccc(OCc2nnc3sc(CCCc4ccccc4)nn23)cc1 | 1030 s |
| Cc1nc(CCNC(=O)Cc2ccsc2)no1 | 640 s |
| O=C(NCCc1csc(C2CCN(C(=O)C3CCCO3)CC2)n1)C1CCC1 (stereo unspecified) | 626 s |
| Cc1ccc(CN2CCN(C3CCN(C(=O)Nc4ccccc4C(F)(F)F)CC3)C(=O)C2=O)cc1 | 810 s |
| CCCn1c(C)cnc1CC1CCN(S(=O)(=O)c2ccc3c(c2)CCC3)C1 (stereo unspecified) | 730 s |
| CCn1cc(CCN2CCC(C(=O)NC3CCCCC3)CC2)c2cccnc21 | 619 s |
| CCn1cc(C)c(C(=O)O)c1CC(=O)Nc1ccc(Cl)cc1 | 1010 s |
| CN1CCCN(C(=O)CN2CCCc3nc(C4CC4)ncc3C2=O)CC1 | 570 s |
| Cc1c(Cl)cccc1NC(=O)C(=O)NCc1ccsc1 | 943 s |
| CC(C)C(=O)Nc1cc2c(cc1N(C)C)n(C)c(=O)c(=O)n2C | 631 s |
| O=C(CN1C(=O)C2CCCCN2c2ccc(S(=O)(=O)N3CCCC3)cc21)NCc1ccccc1 (stereo unspecified) | 921 s |
| CC1(C)CC(O)CC(C)(C)N1CC(O)COc1ccc(Cl)cc1Cl (stereo unspecified) | 590 s |
| CCc1ccc(C2=C(C)C(N3CCCN(C(=O)NCC(C)C)CC3)=NS2(=O)=O)cc1 | 842 s |
| CCN(CC)c1nc(NC)nc(-n2cnc(SC)n2)n1 | 897 s |
| Cc1nnc(N2CCC(C(=O)N3CCC(C(N)=O)CC3)CC2)c2nn(-c3ccccc3)c(C)c12 | 599 s |
| NC(=O)c1cccn1Cc1ccccc1Cl | 804 s |
| CCOc1ccc(CNc2nc3ccncc3n(C(C)C)c2=O)cc1OC | 584 s |
| CCCN1C(=O)Cc2ccccc2C1C(=O)O (stereo unspecified) | 668 s |
| CNc1nc(Nc2cccc(OC)c2)nc2ccccc12 | 650 s |
| Cc1cc(C(=O)NCc2ccsc2)no1 | 700 s |
| CNC(=O)c1ccsc1NC(=O)c1cn(C)nc1OC | 616 s |
| COc1ccccc1OCc1nn2c(CSc3ccccc3)nnc2s1 | 882 s |
| O=C(CCC[C@@H]1[C@H]2CCCN3CCC[C@@H](CN1C(=O)C1CC1)[C@@H]23)Nc1ccccc1 | 609 s |
| O=C(CCSc1ccccc1)Nc1cccc2ccc(-n3ccnc3)nc12 | 648 s |
| CC(C)Cc1ccc(S(=O)(=O)N(C)CC2CCOCC2)cc1 | 1010 s |

| SMILES | RP-LC retention time |
| --- | --- |
| N#CCN(c1ccc2c(c1)OCCO2)S(=O)(=O)c1ccc2nncn2c1 | 690 s |
| CCCCCn1c(=O)c2c(nc3n2CCN3c2ccc(OC)cc2)n(C)c1=O | 1010 s |
| O=C(NCCN1CCOCC1)c1ccc(-c2c(-c3ccc(F)cc3)ncn2C2CCCC2)o1 | 592 s |
| CCCc1ccc(S(=O)(=O)N2CCC(c3nc4ccncc4n3CCOC)C2)cc1 (stereo unspecified) | 610 s |
| COC(=O)c1ccccc1NC(=O)c1cnc2c(c1)c(=O)n(C)c(=O)n2-c1ccccc1 | 1030 s |
| Cc1ccc(-n2cc(C3=CCN(CC(=O)NC4CCN(Cc5ccccc5)CC4)CC3)cn2)cc1 | 551 s |
| CCC(=O)Nc1ccc(CCc2nc3ccc(C(=O)NCc4ccc(SC)cc4)cc3[nH]2)cc1 | 683 s |
| O=C(c1ccc(Cl)s1)N1CCN(c2ncnc3c2CCC3)CC1 | 638 s |
| CCOc1cc(CNC(=O)C2CCCN(C(=O)c3[nH]c(C)cc3C)C2)cc(OCC)c1OCC (stereo unspecified) | 876 s |
| C=CCc1cccc(/C=N/NC(=O)C[NH+]2CCN(Cc3ccccc3)CC2)c1[O-] | 783 s |
| COC1C(=O)N(CC2CC2)C12CCN(C(=O)C(C)C)CC2 (stereo unspecified) | 686 s |
| CCCn1cnc2cc(CNC(=O)C(C)c3ccccc3)ccc21 (stereo unspecified) | 631 s |
| Cc1cc(N2CCN(C(=O)c3ccc(F)cc3Cl)CC2)nc(N2CCOCC2)n1 | 637 s |
| O=C(NC1CCCCCC1)c1cc(C2CC2)[nH]n1 | 792 s |
| O=C(CS(=O)Cc1cnn(-c2ccccc2)c1-n1cccc1)NCc1ccccc1 (stereo unspecified) | 797 s |
| O=C(COc1ccc([N+](=O)[O-])cc1Cl)N1CCOCC1 | 846 s |
| Cc1onc(-c2ccccc2Cl)c1C(=O)NC1C(=O)N2C1SC(C)(C)C2C(=O)O (stereo unspecified) | 815 s |
| Cc1nn(C(C)C)c(C)c1S(=O)(=O)N1CCN(C(=O)C2(c3ccccc3)CC2)CC1 | 890 s |
| CCCn1cc(CCNC(=O)Nc2ccc3c(c2)OCCO3)c2cccnc21 | 704 s |
| CCc1noc(-c2cccnc2N2CCCN(Cc3ccc(F)cc3Cl)CC2)n1 | 700 s |
| C#CCNc1ccc(C(=O)OCC)cc1 | 879 s |
| O=C1CCCc2cc(S(=O)(=O)NCC3CCN(Cc4ccc(F)cc4)CC3)ccc2N1 | 603 s |
| NC(=O)[C@@H]1C[C@H](Oc2ccccc2)CN1C1CCCC1 | 584 s |
| O=C(Cn1ccn2nc(-c3ccc(F)cc3)c(CO)c2c1=O)NCCC1=CCCCC1 | 900 s |
| COC(=O)c1cc(S(=O)(=O)N2CCCC2C(=O)Nc2cccc(SC)c2)cn1C (stereo unspecified) | 909 s |
| COCC(C)NC(=O)C(=O)Nc1ccc2c(c1)OCCO2 (stereo unspecified) | 685 s |
| CC1CCN(S(=O)(=O)N2CCCC(C(=O)Nc3ccccc3C(=O)c3ccccc3)C2)CC1 (stereo unspecified) | 963 s |

The next lines start with the values.

| RP-LC retention time | SMILES |
| --- | --- |
| 1150 s | CCc1sc(NC(=O)Cc2c(F)cccc2Cl)nc1-c1ccccc1 |
| 885 s | COc1ccc(-c2cc3n(n2)CCCN(C(=O)Nc2ccccc2F)C3)cc1OC |
| 994 s | Cc1nc(-c2cc(S(=O)(=O)NCc3cc(F)cc(F)c3)c(C)s2)cs1 |
| 604 s | Cc1ccc(-c2[nH]ncc2CN2C[C@@H](CO)[C@H](c3ccncc3)C2)cc1 |
| 654 s | Cc1nncn1C1CN(C(=O)c2ccc(OC(F)(F)F)cc2)C1 |
| 1160 s | Cc1cccc(NC(=O)c2cc(C(C)C)n3nccc3n2)c1 |
| 929 s | Cc1nc(OCC(=O)NCc2cccc(Cl)c2)c2c(C)c(C)oc2n1 |
| 1010 s | Cc1cc(C(=O)Nc2ccc3c(c2)N(S(=O)(=O)c2ccc(F)cc2)CCC3)c(C)o1 |
| 1230 s | CCN1C(=O)COc2ccc(-c3noc(-c4ccc(C)cc4)n3)cc21 |
| 936 s | O=C(Nc1ncc(-c2ccccc2)s1)c1ccccc1Br |
| 904 s | CCCNC(=O)N1CCCC1c1nc(-c2cccc(Cl)c2)no1 (stereo unspecified) |
| 894 s | Cc1ccc(NC(=O)CN2C(=O)CC(C)S(=O)(=O)c3ccccc32)cc1Cl (stereo unspecified) |
| 698 s | CSc1ccc(CNC(=O)Cn2c(C)cc(C)c(C#N)c2=O)cc1 |
| 972 s | COc1ccc(-c2noc(C3CCCN3C(=O)Nc3cccc(Br)c3)n2)cc1 (stereo unspecified) |
| 808 s | Cc1cccc(N(C)C(=O)Cn2nc3nc(N4CCCC(C)C4)ccn3c2=O)c1 (stereo unspecified) |
| 1210 s | CCN(C(=O)c1ccccc1OC)c1nc(-c2ccccc2)cs1 |
| 1010 s | CCCCCNC(=O)c1cnn2c(-c3ccc4c(c3)OCO4)ccnc12 |
| 902 s | CSc1cccc(NC(=O)CN2C(=O)CCn3nc(-c4cn(C)c5ccccc45)cc32)c1 |
| 852 s | Cc1cc(CNC(=O)c2cc3ccccc3o2)c(C)o1 |

| RP-LC retention time | SMILES |
| --- | --- |
| 906 s | Cc1nc(-c2ccc3c(c2)CCN3C(=O)c2cccc(C#N)c2)cs1 |
| 764 s | CCC(C)NC(=O)Cn1nc2c3cc(-c4ccc(F)cc4)nn3ccn2c1=O (stereo unspecified) |
| 1360 s | CCOc1ccccc1-c1csc(NC(=O)Cc2csc(COc3cc(C)ccc3C)n2)n1 |
| 1170 s | O=c1c2scc(-c3cccc(F)c3)c2ncn1Cc1ccc(Br)cc1 |
| 754 s | CCOC(=O)Cc1csc(NC(=O)c2cc(=O)c3ccccc3o2)n1 |
| 781 s | CCc1nnc(-c2ccc3ccn(CC(=O)NCCc4cccs4)c3c2)o1 |
| 1070 s | CCSc1nc2ccc(NS(=O)(=O)c3cc(C)ccc3C)cc2s1 |
| 1030 s | CCn1c(=O)c(N2CCCC(C(=O)NCCc3c[nH]c4ccc(C)cc34)C2)nc2ccccc21 (stereo unspecified) |
| 578 s | Cc1ccc(NC(=O)N2CCc3nc[nH]c3C2)c(C)c1 |
| 978 s | COc1cccc(NC(=O)c2csc(-c3cn(C)c4ncccc34)n2)c1 |
| 584 s | CC(=O)N1CCc2cc(-c3ccc(C(=O)NCc4ccccn4)cc3)ccc21 |
| 856 s | CCN(Cc1ccccc1)S(=O)(=O)c1ccc2c(c1)CCCC(=O)N2 |
| 726 s | CCOC(=O)c1cc(-c2ccc(OC)c(S(=O)(=O)N3CCN(c4ccccn4)CC3)c2)on1 |
| 946 s | COc1ccc(-c2ncc3c(n2)CCN(C(=O)c2ccc(Br)o2)C3)cc1 |
| 680 s | CCCn1cc(-c2ccncc2)cc1C(=O)NCc1ccc(F)cc1 |
| 906 s | COc1ccc(NC(=O)N2CCc3nc(-c4ccc(F)cc4)ncc3C2)cc1 |
| 640 s | CC(=O)Nc1cc(C(=O)NCc2ccc(OC(C)C)cc2)c2ccc(C)nc2c1 |
| 902 s | CCN1c2ccc(C)cc2C(=O)NC12CCN(C(=O)c1ccc(Br)cc1)CC2 |
